The source of these data is patent publication US20240173316A1, “Methods and Compositions for Treating Cancer” (Ohio Northern University, priority 2022, published 2024).

Series [1] addresses RGS2-Galpha-q interaction (Homo sapiens (Human), UniProt P41220). The series can be described thus: NanoBit RGS/Gα cell-based protein-protein interaction assay, RGS2. The conditions noted are these: for Selectivity: RGS4 IC50/RGS2 IC50; for IC50: inhibition of RGS2-Galpha-q interaction, read-out: RGS2 IC50 μM (95% Cl). As to the method: (§1) The NanoBit cell-based assay was performed as previously described. The NanoBit substrate (NanoGlo Live Cell Reagent) was prepared as a 5× stock, per the manufacture's protocol, and added to the wells at 10 μL per well. Post substrate addition, a baseline signal was established for 30 minutes using a BioTek Synergy 2 plate reader in luminescent mode. Post baseline read 10 μL of vehicle (Hank's Balanced Salt solution+20 mM HEPES) or AlF4 (stock solution: 40 mM NaF, 500 μM AlCl3) was added and luminescence was measured for an additional 30 minutes. Lastly, 4× compound or vehicle (DMSO) was added to the appropriate wells, and the plate was read for an additional hour. Data presented represents the mean of N=3 independent experiments±S.E.M. All data analysis was completed in GraphPad Prism 7 and 8.
(§2) All selected compounds were purchased and tested for their ability to inhibit RGS2-Galpha-q interaction in NanoBit assays. The same assay was also used to test the compounds' ability to inhibit RGS4-Galpha-q interaction as a measure of selectivity. RGS4 was not part of the docking calculations performed here because no structure is available for the human RGS4. It was used in the assays, nonetheless, to test for the validity of our docking approach to selectivity and binding.

The test system of a further series is NCI 60 cell panel. Briefly: NCI 60 Cell One-Dose Screen. The settings on record: single high dose 10^−5 M; leukemia, NSCLC, colon, CNS, melanoma, ovarian, renal, prostate, breast. Type of series: cell-based, human. As to the method: Another study was conducted to measure the cytotoxic effect of the RGS2 inhibitor. The growth reduction feature of direct RGS2 inhibitors was examined within the National Cancer Institute single high dose panel established that the drug was cytotoxic across a variety of cancers. Spanning across 60 standard cancer cell lines, this cytotoxicity assessment measured anti-proliferative activity within the following cancer types, with numerous subtypes below them: leukemia, non-small cell lung cancer, colon cancer, central nervous system cancer, melanoma, ovarian cancer, renal cancer, prostate cancer, and breast cancer.
The NCI 60 Cell One-Dose Screen is a standardized test carried out by National Cancer Institute, where a compound is tested at an initial single high dose (10^−5 M) across the full NCI 60 cell panel. Once a compound is assessed to be effective against a standard threshold number of cell lines, the compound is progresses to a full five-dose screen to determine anti-proliferative capability. This assay is ran relative to parallel studies with a no-drug control and at time zero number of cells.

In series [2] the target is RGS4-Galpha-q interaction (Homo sapiens (Human), UniProt P49798). The series can be described thus: NanoBit RGS/Gα cell-based protein-protein interaction assay, RGS4. The settings on record: for IC50: inhibition of RGS4-Galpha-q interaction, read-out: RGS4 IC50 μM (95% Cl). As to the method: as §1, §2
Sequence of RGS4-Galpha-q interaction (P49798 whole entry): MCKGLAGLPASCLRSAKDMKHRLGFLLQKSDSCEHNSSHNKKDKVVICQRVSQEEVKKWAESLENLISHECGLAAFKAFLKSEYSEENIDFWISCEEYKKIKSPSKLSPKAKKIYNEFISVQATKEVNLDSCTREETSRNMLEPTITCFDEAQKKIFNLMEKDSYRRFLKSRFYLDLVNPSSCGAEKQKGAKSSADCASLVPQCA
Series [3] concerns LNCaP prostate cancer cell line. The series can be described thus: Wound healing (scratch) migration assay. The format is cell-based, human. The settings on record: 1 μM, more potently at 2 μM and higher. The method, then:
It has previously been shown that RGS2 gene expression in the human prostate cancer cells LnCap were downgraded by infection with small hairpin RNA (shRNA) targeting the RGS2 gene (henceforth “shRGS2”). These shRGS2 LnCap cells expressed lower levels of RGS2 protein compared to the non-infected control, leading to a reduction in RGS2 activity.
Metastatic evaluation was carried out by a wound healing assay. A wound healing assay measures cell migration of individual cells, cell sheets, and clusters from one location to another. A single mechanical laceration was made on a 12-well plate growing a cancer cells monolayer that was grown overnight, and the cells were allowed to regrow across the inclusion over the span of 48 hours. Results were recorded between the knockdown shRGS2 and control in values of the closure % as the wound healing took place at 24 hour and 48 hour time points (FIG. 3). Results for the RGS2 inhibitor treated cells were recorded as pictures taken at 5 separate time points every 24 hours (FIG. 4A-H).

Sequence of RGS2-Galpha-q interaction (P41220 whole entry): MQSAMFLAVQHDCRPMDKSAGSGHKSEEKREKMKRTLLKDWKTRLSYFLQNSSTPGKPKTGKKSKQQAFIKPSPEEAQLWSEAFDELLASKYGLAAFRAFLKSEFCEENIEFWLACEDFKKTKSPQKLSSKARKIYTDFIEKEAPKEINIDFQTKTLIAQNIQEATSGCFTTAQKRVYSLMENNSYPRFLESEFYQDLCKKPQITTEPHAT

With `Nc1nc2c(nc(NCCCN3CCOCC3)n2[C@H]2O[C@@H](CO)[C@H](O)[C@@H]2O)c(=O)[nH]1` [AJ-1], in series [1], the Selectivity is 289 and the IC50 (commonly the point on the concentration scale where inhibition reaches its midpoint) came to 0.04 µM. Also, the “cytotoxic effect across cancer types” value with NCI 60 cell panel was “cytotoxic effect against all aforementioned cancers except prostate, ovarian, and colon cancer”. For the same compound, the IC50 in series [2] turned out to be 10.1 µM.
Turning to `COc1ccc(Cn2nnnc2[C@H](c2cc3cc(C)ccc3[nH]c2=O)N2CCN(C3CCCCC3)CC2)cc1` [AJ-2], in series [1], the Selectivity is given as 13 and the half-inhibitory concentration (IC50) is 1.45 µM. For the same compound, in series [2], the IC50 is 18.8 µM.
As to `Cc1onc(C(=O)NNC(=O)Nc2ccc(Cl)cc2)c1C(=O)N1CCN(C(c2ccccc2)c2ccccc2)CC1` [AJ-3], in series [1], the Selectivity is given as 4.25 and the half-inhibitory concentration (IC50) is 4.94 µM. Further, in the series on NCI 60 cell panel, the “cytotoxic effect across cancer types” value is “strong cytotoxic effect against the full list of cancers”. Moreover, in series [2], the IC50 came out at 21 µM. Besides, the “migration of LNCaP cells” value in series [3] is recorded as “inhibited the migration ability”.
With `Cc1ccc([C@@H](C(=O)NC2CCCCC2)N(Cc2ccccc2Cl)C(=O)c2ccc(CN3CCOCC3)o2)o1` [AJ-4], the Selectivity in series [1] stood at 1.81. The IC50 was 13.8 µM in series [1] and 25 µM in series [2]. Besides, the “cytotoxic effect across cancer types” value with NCI 60 cell panel is on record as “strong cytotoxic effect against the full list of cancers”.
As for `Cc1cc(C)c2[nH]c(=O)c([C@@H](c3nnnn3Cc3ccc4c(c3)OCO4)N3CCN(C)CC3)cc2c1` [AJ-5], the Selectivity in series [1] is 1.53. For the same compound, the values for the IC50 in series [1] and in series [2] were 15 µM and 23 µM, respectively.
The like results for `Cc1cccc2cc([C@H](c3nnnn3Cc3ccc4c(c3)OCO4)N3CCN(C)CC3)c(=O)[nH]c12` [AJ-6] were, in that order, 0.48, 19.8 µM and approximately 9.6 µM.
Take `Cn1c(=O)c2c(nc(NCc3ccccc3)n2C[C@H](O)CN2CCN(Cc3ccccc3)CC2)n(C)c1=O` [AJ-7]: in series [1], the Selectivity is 0.51 and the concentration for half-maximal inhibition (IC50) was 27.6 µM. For the same compound, in series [2], the IC50 stood at 14.1 µM.
For the compound `CCc1ccc2[nH]c(=O)c(C(c3nnnn3Cc3ccc(F)cc3)N3CCN(C4CCCCC4)CC3)cc2c1` (stereo not drawn) [AJ-8], in series [1], the Selectivity was 0.29 and the IC50 is 33.1 µM. In addition, the “cytotoxic effect across cancer types” value with NCI 60 cell panel is “strong cytotoxic effect against the full list of cancers”. For the same compound, in series [2], the IC50 stood at 9.6 µM.
Turning to `Cc1cc(C)c2[nH]c(=O)c(C(c3nnnn3Cc3ccc(F)cc3)N3CCN(C4CCCCC4)CC3)cc2c1` (stereo not drawn) [AJ-9], in series [1], the Selectivity is reported as 2.72 and the 50% inhibitory concentration (IC50) was determined as 33.5 µM. The “cytotoxic effect across cancer types” value in the series with NCI 60 cell panel is reported as “strong cytotoxic effect against the full list of cancers”. The concentration for half-maximal inhibition (IC50) in series [2] was 91 µM.
Turning to `COCc1ccc2[nH]c(=O)c(C(c3nnnn3C[C@H]3CCCO3)N3CCN(Cc4ccccc4)CC3)cc2c1` (stereo partly drawn) [AJ-10], the half-maximal inhibitory concentration (IC50) in series [1] amounted to 78 µM. For the same compound, the “cytotoxic effect across cancer types” value in the series with NCI 60 cell panel is “strong cytotoxic effect against the full list of cancers”. For the same compound, in series [2] (result in words), the “activity towards RGS4” value was “no apparent activity towards RGS4”.
